In ChEMBL document CHEMBL3507680, “University of Dundee, Gates Library screen for HepG2 cell viability”:

Assay: Human HepG2 cell viability assay in 384 well format
Type: toxicity, cell-based
Parameters: dose 125 nL, time 70.5 hour; cytotoxicity at 70.5 h: concentration not given beside the values
Settings: HepG2 cells, read-out: Inhibition

Row | SMILES | cytotoxicity at 70.5 h [%]
1 | O=S(=O)(CCCN1CCCCC1Cn1cncn1)c1ccccc1 (centres undefined) | -4.13
2 | Cc1ccc(CN(C)C(=O)CN2CCOC(Cn3cccn3)C2)o1 (centres undefined) | -3.39
3 | NC(=O)CN1CCC(NC(=O)COc2ccc(Cl)c(Cl)c2)CC1 | -2.35
4 | CS(=O)(=O)N1CCC(NC(=O)COc2ccc3ccccc3c2)CC1 | -1.61
5 | O=C(CCOc1ccc(Br)cc1)N1CCN(c2cnccn2)CC1 | 24.8
6 | Cc1cc(C(=O)NCC(C)N2CCc3ccccc32)on1 (centres undefined) | 7.49
7 | CC(C)NC(=O)Nc1ccc(CNCc2ccc(OC(F)F)cc2)cc1 | 13.8
8 | CCOc1ncccc1NC(=O)NC1CCN(c2ncccn2)CC1 | 2.59
9 | COC(=O)c1cccn1C1CCN(S(=O)(=O)c2ccccc2)CC1 | 3.76
10 | O=C(CCOc1cccc(Cl)c1)N1CCN(c2cnccn2)CC1 | 22
11 | CC(CNC(=O)c1cc(C2CC2)on1)N1CCc2ccccc21 (centres undefined) | 2.16
12 | CCOC(=O)N1CCC(NC(=O)Nc2cccnc2OCC)CC1 | 6.34
13 | CCOc1ncccc1NC(=O)NC1CCN(C(=O)C2CC2)CC1 | 3.99
14 | CCOc1ncccc1NC(=O)NC1CCCN(S(C)(=O)=O)C1 (centres undefined) | -0.949
15 | CN(Cc1ccsc1)C(=O)CN1CCOC(Cn2cncn2)C1 (centres undefined) | -1.49
16 | Cc1cnn(CC2CCCN2C(=O)c2c(F)cccc2Cl)c1 (centres undefined) | 0.266
17 | COc1c(C2CCCN2C(=O)c2cccnc2N(C)C)c(C)nn1C (centres undefined) | 0.616
18 | COC(=O)c1cccn1C1CCN(CCN2C(=O)CCC2=O)CC1 | -5.66
19 | O=S(=O)(CCN1CCCC1Cn1cncn1)c1ccccc1 (centres undefined) | -1.96
20 | CN(CC(=O)N1CCCCC1c1nccs1)C1CC1 (centres undefined) | 28.5
21 | Cc1nn(Cc2ccccc2)c(C)c1CNC1CCc2ncnn2C1 (centres undefined) | 0.852

Row | SMILES | cytotoxicity at 70.5 h [%]
22 | Cc1nn(C)c(C)c1C1CCCN1Cc1nc2ccccc2o1 (centres undefined) | -4.38
23 | c1ccc(-n2cc(CNC3CCc4ncnn4C3)cn2)cc1 (centres undefined) | -4.52
24 | Clc1ccccc1Cn1cc(CNC2CCc3ncnn3C2)cn1 (centres undefined) | -0.86
25 | CCc1nccn1C1CCCN(C(=O)CCCc2ccccn2)C1 (centres undefined) | -2.48
26 | CC(=O)N(Cc1noc(C)n1)C1CCN(Cc2ccccn2)C1 (centres undefined) | -8.37
27 | O=C(Cc1cn2ccccc2n1)N1CCCC(n2ccnc2)C1 (centres undefined) | -3.99
28 | O=C(NCc1nnc2n1CCCCC2)N1CCc2ccccc2C1 | 1.11
29 | O=C(NCc1nnc2n1CCC2)N1CCc2sccc2C1 | -6.3
30 | O=C(NCc1nnc2n1CCCC2)N1CCc2sccc2C1 | -4.27
31 | COc1c(CNCc2cccc(C(=O)N(C)C)c2)c(C)nn1C | 5.09
32 | CC(NC(=O)NCCc1ccc(Cl)s1)c1ccccn1 (centres undefined) | -2.15
33 | COc1c(CNCc2ccc(S(C)(=O)=O)cc2)c(C)nn1C | 0.0381
34 | CC(C)c1nccn1C1CCCN(C(=O)c2cc(C(N)=O)cs2)C1 (centres undefined) | 2.06
35 | NS(=O)(=O)c1cc(C(=O)N2CCCC(n3ccnc3)C2)cs1 (centres undefined) | -3.09
36 | Cc1ccc(CNc2cc(N3CCCC3CO)ncn2)s1 (centres undefined) | -0.592
37 | Cc1nc(C)n(C2CCCN(C(=O)Cc3cn4ccccc4n3)C2)n1 (centres undefined) | 1.25
38 | Cc1c(C(=O)N2CCCC(n3cncn3)C2)cnn1C (centres undefined) | 3.32
39 | CC(C)(C)c1n[nH]c(C2CN(CCc3cccs3)CCO2)n1 (centres undefined) | 3.37
40 | CC(=O)N(Cc1noc(C)n1)C1CCN(Cc2c(C)noc2C)C1 (centres undefined) | -0.736
41 | CCc1nccn1C1CCCN(C(=O)Cc2cn3ccsc3n2)C1 (centres undefined) | -11.7
42 | CN(C)CCC1CCN(Cc2ccn(C)c(=O)c2)CC1 | -4.16

Row | SMILES | cytotoxicity at 70.5 h [%]
43 | O=C(NCc1csc(Br)c1)c1cnccn1 | -13.5
44 | CNS(=O)(=O)c1cccc(CNC(=O)c2cc(C)no2)c1 | 15.5
45 | CCc1ccc(C(=O)NCc2cccc(S(=O)(=O)NC)c2)o1 | -0.952
46 | Cc1ccc(F)c(S(=O)(=O)NCc2cccc(C(=O)N3CCCC3)c2)c1 | 16.3
47 | Cn1ccc(CN2CCC(Cc3ccccc3)CC2)cc1=O | 0.151
48 | Cn1ccc(CN2CCC(CC(=O)N3CCCC3)CC2)cc1=O | -6.85
49 | Cc1cnn(C2CCCN(C(=O)CCCOc3ccccc3F)C2)c1 (centres undefined) | -5.78
50 | Cc1cnn(C2CCCN(C(=O)c3cn(-c4ccccc4)nn3)C2)c1 (centres undefined) | -6.41
51 | COc1ccc(F)cc1CN1CCCC1Cn1nc(C)nc1C (centres undefined) | -1.67
52 | Cc1cnn(CC2CCCN2C(=O)c2ccc3[nH]c(=O)[nH]c3c2)c1 (centres undefined) | -1.55
53 | Cc1cc(C)n(CC2CCCN2C(=O)c2cnc3n[nH]c(C)c3c2)n1 (centres undefined) | 1.22
54 | Cc1nc(C2CCCN(C(=O)c3cnn(C4CCCCC4)c3)C2)no1 (centres undefined) | -1.22
55 | Cc1ccc(N2CCCC(NCc3cc(C)on3)C2)nn1 (centres undefined) | -3.47
56 | O=C(COC1CCCCC1)N1CCCC(n2ccnc2)C1 (centres undefined) | -6.58
57 | O=C(CCOc1cccc(F)c1)N1CCCC(n2cccn2)C1 (centres undefined) | -2.03
58 | O=C(COc1ccccc1Cl)N1CCCC(n2ccnc2)C1 (centres undefined) | -2.83
59 | CSCCC(=O)N1CCCC(n2ccnc2)C1 (centres undefined) | -6.36
60 | O=C(COCCOc1ccccc1)N1CCCC(n2ccnc2)C1 (centres undefined) | -4.49
61 | O=C(NCc1nncn1-c1ccccc1)C1CC(=O)N(CC2CC2)C1 (centres undefined) | -18.1
62 | COc1ccc(CNC(=O)Nc2cccnc2N2CCCC2)cc1O | -8.02
63 | Cc1ccc(-c2ncc(C(=O)NCCNC(=O)C(C)C)s2)c(C)c1 | -8.72

Row | SMILES | cytotoxicity at 70.5 h [%]
64 | CCN1CCN(CC(O)c2ccc(F)cc2)CC1 (centres undefined) | -14.7
65 | O=C1CCC(C(=O)NCc2nncn2-c2ccccc2)CN1 (centres undefined) | -12.6
66 | CC(NC(=O)Nc1cc(F)ccc1N1CCCCC1)c1nncn1C (centres undefined) | -4.36
67 | Cc1nn(C)c(C)c1C(C)NC(=O)Nc1cccnc1N1CCCC1 (centres undefined) | -15.8
68 | CCOCC(O)CN1CCN(C(=O)CC(C)(C)C)CC1 (centres undefined) | -18.5
69 | CC(C)c1nc2n(n1)CC(NCc1nnc(-c3ccco3)o1)CC2 (centres undefined) | -11.9
70 | N#Cc1ccccc1OCCN1CCCC1Cn1cccn1 (centres undefined) | -4.78
71 | Cn1nc2c(cc1=O)CN(Cc1coc(-c3cccs3)n1)CC2 | -7.48
72 | Cc1cc(C2CCCN(C(=O)c3ccc(C)[nH]c3=O)C2)n[nH]1 (centres undefined) | -13.9
73 | Cc1noc(C(C)C)c1C(=O)NCCN1CCCCCC1=O | -19
74 | Cc1nc(C)c(C(=O)NCCNc2ncccc2C#N)s1 | -7.46
75 | Cn1ccc(C(=O)NCc2cccc(CN3CCCC3)c2)cc1=O | -3.99
76 | CCN1CCN(C(=O)NCCOc2ccc3c(c2)OCO3)CC1 | -11.4
77 | CC(O)(CN1CCC2(CC1)OCCO2)c1cccc(C(F)(F)F)c1 (centres undefined) | -4.13
78 | COc1ccc(C)cc1CC(=O)N1CCN(CC(C)O)CC1 (centres undefined) | -5.05
79 | Cn1ccc(C(=O)NCc2cccc(NC(=O)C3CCC3)c2)cc1=O | -13.3
80 | CC(C)OCCN(C)C(C)c1cccc(S(N)(=O)=O)c1 (centres undefined) | 22.5
81 | Cn1cc(-c2nc(CN3CCc4c(ncn4C4CC4)C3)cs2)cn1 | -15.2
82 | c1ccc(CCNC2CCc3ncnn3C2)nc1 (centres undefined) | 3.59
83 | CC(C)c1nc(CN(C)C2CCN(CCNS(C)(=O)=O)C2)no1 (centres undefined) | 32.3
84 | Cc1cccc(CNC2CCCc3c2cnn3C)c1 (centres undefined) | -6.91
